{"source": "patent US20170320939A1", "about": "“COLL2-1 PEPTIDE AND ITS NITRATED FORM AS THERAPEUTIC TARGETS FOR OSTEOARTHRITIS TREATMENT” (Université de Liège, priority 2014, published 2017)", "tested_on": "TSP1", "assay": "TSP1 mRNA expression by Real Time PCR in OA synovial fibroblast cells", "assay_type": "cell-based, human", "settings": "increasing concentrations: Coll2-1 (0.45 and 4.5 nmol) or Coll2-1NO2 (4 and 40 pmol), 24 hours", "method": "1.3 Treatment of synovial fibroblast cells. Cells were seeded into a six-well plate at the density of 2×10^5 cells/well in 2 ml of CM. When the cells reached confluence, the CM was replaced with 1% serum medium for 24 h to keep the cells quiescent. Cells were incubated for 24 hours with or without peptides Coll2-1 (^108HRGYPGLDG^116; 0.45 and 4.5 nmol) or Coll2-1NO2 (^108HRGYPGLDG-NO2^116; 4 and 40 pmol) at a range of concentrations found in the blood of osteoarthritic patients.\n1.4 RNA extraction and Real Time Reverse Transcriptase-Polymerase Chain Reaction (RT PCR). Total RNA were extracted using the RNeasy Mini Kit (Qiagen, Netherlands) and were reverse transcribed with SuperScript III Reverse Transcriptase (Invitrogen, Belgium) according to the manufacturer's instructions. The cDNAs were quantified by real-time quantitative PCR using the Rotor Gene instrument (Qiagen, Venlo, Netherlands) and the SYBR Premix Ex Taq kit (Takara, Verviers, Belgium). The level of gene expression was determined by interpolation with a standard curve. To standardize mRNA levels, HPRT, a house keeping gene, was amplified as an internal control. The oligonucleotide primers sequences were as follow: HPRT forward, 5′-[…]-3′ (SEQ ID NO: 2); HPRT reverse, 5′-TGCCTGACCAAGGAAAGC-3′ (SEQ ID NO: 3); TSP-1 forward, 5′-CAGACCGCATTGGAGATAC-3′ (SEQ ID NO: 4); TSP-1 reverse, 5′-[…]-3′ (SEQ ID NO: 5); VEGF forward, 5′-TGCCTTGCTGCTCTAC-3′ (SEQ ID NO: 6); VEGF reverse, 5′-CACACAGGATGGCTTGAA-3′ (SEQ ID NO: 7); IL-6 forward, 5′-AAACAAATTCGGTACATCCTCG-3′ (SEQ ID NO: 8); IL-6 reverse, 5′-CCA GGC AAG TCT CCT CAT-3′ (SEQ ID NO: 9); IL-8 forward, 5′-GGAACCATCTCACTGTGTGTAA-3′ (SEQ ID NO: 10); IL-8 reverse, 5′-TGGAAAGGTTTGGAGTATGTCT-3′ (SEQ ID NO: 11)."}
{"sequence": "HRGYPGLDG [Coll2-1]", "values": [{"measurement": "TSP1 expression", "value": "decrease"}]}
